Assay results taken from patent US20250136617A1 (The Regents of the University of Colorado, A Body Corporate, priority 2022, published 2025).
Entries after “also recorded” stand apart in the source; their conditions may differ.

How the values were obtained:
miR-15b = test: qPCR of miR-15b expression in human dermal fibroblasts; type: cell-based; settings: 24 hours, 0.1, 1 and 10 uM
Procedure: An additional secondary screen was performed to further validate activity of UCUF-728 as a selective CXCR4 receptor modulator. Human diabetic and non-diabetic fibroblasts were cultured with increasing concentrations of the compound. The cells were incubated for 24 hours and then total cellular RNA was isolated to examine the ability of the compound to correct the abnormal expression of miR15b, and miR29a. It has been shown that human diabetic skin has increased miR-15b expression at baseline compared to non-diabetic skin (Xu et al. “The role of microRNA-15b in the impaired angiogenesis in diabetic wounds.” Wound Repair Regen 2014; 22(5):671-7).
Diabetic and non-diabetic fibroblasts were cultured with increasing concentrations of a UCUF-965 compound. The cells were incubated for 24 hours and then total cellular RNA was isolated to examine the ability of the compound to correct the abnormal expression of miR15b, and miR29a. Angiogenesis is regulated by hypoxia and the production of growth factors such as Hypoxia-inducible Factor 1-alpha (HIF-1a) and Vascular Endothelial Growth Factor (VEGF). […] MicroRNA-15b (miR-15b) has been described as a key negative modulator of angiogenesis. Under hypoxia, miR-15b is repressed, resulting in an increased level of VEGF. Over-expression of miR-15b also markedly attenuates hypoxia induced vessel tube formation and cell migration. […]

[1] = system: diabetic wounds in Db mice; test: Diabetic wound healing, full-thickness excisional 8 mm wounds in Db mice; type: in vivo; settings: for reduction of wound closure time vs PBS: 10 μM; for wound surface area vs PBS: post-injury day 6
Procedure: (§1) The ability of compound UCUF-728 to improve diabetic wound healing in vivo was examined. Full-thickness excisional 8 mm wounds were created in Db mice and were immediately treated with 10 μM UCUF-728 or phosphate-buffered saline (PBS) control. Wound healing over the course of 22 days was monitored. Initial wound size was calculated immediately after wounding, and wound closure was assessed over time as the percentage of initial wound area. […] The effect of UCUF-728 treatment on angiogenesis was assessed using immunohistochemistry for endothelial marker CD31. Representative photos of immunoperoxidase staining for CD31 at 7 days in diabetic wounds treated with PBS or UCUF-728 are shown in FIG. 8A.
The ability of UCUF-965, a thiadiazine compound, to improve diabetic wound healing in vivo was examined. Full-thickness excisional 8 mm wounds were created in Db mice and were immediately treated with 10 μM UCUF-965 or PBS control. Wound healing over the course of 22 days was monitored. Initial wound size was calculated immediately after wounding, and wound closure was assessed over time as the percentage of initial wound area. FIG. 13 indicated the wound healing effect of UCUF-965 topical administration on excision wound model on different days after injury. […] UCUF-965-treated diabetic wounds closed around 14 days after treatment whereas control PBS-treated wounds healed at day 22. UCUF-965 is a promising positive allosteric modulator of CXCR4 signaling to treat diabetic would healing.
All animal experiments were approved by the Institutional Animal Care and Use Committee at the University of Colorado Denver—Anschutz Medical Campus, and experimental protocols followed the guidelines described in the NIH Guide for the Care and Use of Laboratory Animals. In these experiments, 10 week old, female, genetically diabetic C57BKS.Cg-m/Leprdb/J (Db) mice and heterozygous, non-diabetic (non-Db), age-matched female controls from the Jackson Laboratory (Bar Harbor, ME) were used. Mice were anesthetized with inhaled isoflurane. Each mouse was shaved and depilated before wounding. The dorsal skin was swabbed with alcohol and Betadine (Purdue Pharma, Stamford, CT). Each mouse received a single, full-thickness dorsal wound (including panniculus carnosum) with an 8-mm punch biopsy (Miltex Inc, York, PA). After wounding, a Hamilton syringe was used to deliver 50 μL of either 10 uM test compound or PBS, as a control. 10 μL were injected intradermally at 12, 3, 6 and 9 o'clock and at the wound base. […] Mice pictures were taken every other day, wound size was analyzed by Image J. A full-thickness skin sample, centered on the wound, was harvested 3 and 7 days after surgery (n=5 per timepoint).

[2] = system: diabetic wounds in Db mice; test: Angiogenesis in diabetic wounds, CD31 immunohistochemistry at 7 days; type: in vivo
Procedure: as §1
All animal experiments were approved by the Institutional Animal Care and Use Committee at the University of Colorado Denver—Anschutz Medical Campus, and experimental protocols followed the guidelines described in the NIH Guide for the Care and Use of Laboratory Animals. […] Mice pictures were taken every other day, wound size was analyzed by Image J. A full-thickness skin sample, centered on the wound, was harvested 3 and 7 days after surgery (n=5 per timepoint).
The effect of UCUF-965 treatment on angiogenesis was assessed using immunohistochemistry for the endothelial marker CD31. […] Quantification of the staining was obtained.

Row | SMILES | miR-15b expression (miR-15b; listed as UCUF-728) | reduction of wound closure time vs PBS [1] | wound surface area vs PBS [1] | number of vessels (CD31 staining) vs PBS ([2]; listed as UCUF-728) | miR-15b expression (miR-15b; listed as UCUF-965) | number of vessels (CD31 staining) vs PBS ([2]; listed as UCUF-965)
1 | COc1ccc(OC)c(NS(=O)(=O)c2ccc(-c3cnc(C4CC4)o3)cc2)c1 [Oxazole Entry 19, 4-(2-Cyclopropyloxazol-5-yl)-N-(2,5-dimethoxyphenyl)benzenesulfonamide] | decreased expression of miR-15b; also recorded: potent suppression of miR-15b expression | 36% | decrease in wound surface area | significant increase in the number of vessels; also recorded: enhanced angiogenesis |  | 
2 | CCOc1ccccc1-c1nnc2n1N=C(c1ccc(N3CCCC3)cc1)CS2 [Thiadiazine Entry 23, 3-(2-ethoxyphenyl)-6-(4-(pyrrolidin-1-yl)phenyl)-7H-[1,2,4]triazolo[3,4-b][1,3,4]thiadiazine] |  | 36% | decrease in wound surface area |  | decreased expression of miR-15b | enhanced angiogenesis markers; also recorded: significantly increased the number of vessels
